Experimental data reported in patent publication US6355799B1, “Substituted benzene compounds, process for their preparation, and herbicidal and defoliant compositions containing them” (ISK Americas Incorporated, priority 1997, dated 2002).

Columns and labels:
Type in all cases: in vivo
[1] = tested on: green foxtail (Setaria viridis, SETVI); assay: Pre-emerge test, greenhouse herbicide activity screening; details: pre-emerge, 14 days after application, rating scale 0-100
Procedure, shortened: (§1)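 Compounds in acetone were track-sprayed at 187 l/ha, 15–1000 g ai/ha, onto sandy loam pots. Pre-emerge seeds were sown one day before spraying, with surface watering afterwards. Post-emerge plants were at the 2–3 leaf stage and sprayed with 0.25% v/v non-ionic surfactant. Injury was rated 0–100 at 14 days.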

[2] = tested on: johnsongrass (Sorghum halepense, SORHA); assay: as above; details: pre-emerge, 14 days after application, rating scale 0-100
Procedure, shortened: as §1

[3] = tested on: common ragweed (Ambrosia artemisizfolia L., AMBEL); assay: as above; details: pre-emerge, 14 days after application, rating scale 0-100
Procedure, shortened: as §1

[4] = tested on: lambsquarters (Chenopodium album, CHEAL); assay: as above; details: pre-emerge, 14 days after application, rating scale 0-100
Procedure, shortened: as §1

[5] = tested on: sicklepod (Cassia obtusifolia, CASOB); assay: as above; details: pre-emerge, 14 days after application, rating scale 0-100
Procedure, shortened: as §1

[6] = tested on: large crabgrass (Digitaria sanguinalis, DIGSA); assay: as above; details: pre-emerge, 14 days after application, rating scale 0-100
Procedure, shortened: as §1

[7] = tested on: ivyleaf morningglory (Ipomoea hederacea, IPOHE); assay: as above; details: pre-emerge, 14 days after application, rating scale 0-100
Procedure, shortened: as §1

[8] = tested on: velvetleaf (Abutilon theophrasti, ABUTH); assay: as above; details: pre-emerge, 14 days after application, rating scale 0-100
Procedure, shortened: as §1

[9] = tested on: barnyardgrass (Echinochloa crus-galli, ECHCG); assay: as above; details: pre-emerge, 14 days after application, rating scale 0-100
Procedure, shortened: as §1

[10] = tested on: redroot pigweed (Amaranthus retroflexus, AMARE); assay: as above; details: pre-emerge, 14 days after application, rating scale 0-100
Procedure, shortened: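 Visual ratings on a 0-100 scale (0 no damage, 100 all plants dead) were taken at 14 days after treatment. Rates of 15-1000 g ai/ha in acetone, 187 l/ha, were sprayed onto soil one day after planting (pre-emerge) or onto 2-3 leaf plants with 0.25% v/v surfactant (post-emerge).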

[11] = tested on: upland rice (Oryza sp., var. Tebonnet, RICE); assay: Post-emerge test, crop safety; details: post-emerge, 14 days after application, rating scale 0-100
Procedure, shortened: as §1

[12] = tested on: field corn (Zea mays L., var. Dekalb 535, CORN); assay: Post-emerge test, crop safety; details: post-emerge, 14 days after application, rating scale 0-100
Procedure, shortened: as §1

[13] = tested on: green foxtail (Setaria viridis, SETVI); assay: Post-emerge test, greenhouse herbicide activity screening; details: post-emerge, 14 days after application, rating scale 0-100
Procedure, shortened: (§2)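 Applied at 15–1000 g ai/ha from acetone in 187 l/ha spray volume. Post-emergence applications included 0.25% v/v non-ionic surfactant and reached plants sown 8–21 days before. Pre-emergence applications were incorporated by surface watering. Efficacy or crop damage was rated on a 0–100 scale after 14 days.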

[14] = tested on: redroot pigweed (Amaranthus retroflexus, AMARE); assay: as above; details: post-emerge, 14 days after application
Procedure, shortened: as §2

[15] = tested on: johnsongrass (Sorghum halepense, SORHA); assay: as above; details: post-emerge, 14 days after application, rating scale 0-100
Procedure, shortened: as §2

[16] = tested on: lambsquarters (Chenopodium album, CHEAL); assay: as above; details: post-emerge, 14 days after application, rating scale 0-100
Procedure, shortened: as §2

[17] = tested on: sicklepod (Cassia obtusifolia, CASOB); assay: as above; details: post-emerge, 14 days after application, rating scale 0-100
Procedure, shortened: as §2

[18] = tested on: large crabgrass (Digitaria sanguinalis, DIGSA); assay: as above; details: post-emerge, 14 days after application, rating scale 0-100
Procedure, shortened: as §2

[19] = tested on: ivyleaf morningglory (Ipomoea hederacea, IPOHE); assay: as above; details: post-emerge, 14 days after application, rating scale 0-100
Procedure, shortened: as §2

[20] = tested on: velvetleaf (Abutilon theophrasti, ABUTH); assay: as above; details: post-emerge, 14 days after application, rating scale 0-100
Procedure, shortened: as §2

[21] = tested on: barnyardgrass (Echinochloa crus-galli, ECHCG); assay: as above; details: post-emerge, 14 days after application, rating scale 0-100
Procedure, shortened: as §2

[22] = tested on: upland rice (Oryza sp., var. Tebonnet, RICE); assay: Pre-emerge test, crop safety; details: pre-emerge, 14 days after application, rating scale 0-100
Procedure, shortened: as §1

[23] = tested on: field corn (Zea mays L., var. Dekalb 535, CORN); assay: Pre-emerge test, crop safety; details: pre-emerge, 14 days after application, rating scale 0-100
Procedure, shortened: as §1

[24] = 63 g ai/ha, rating scale 0-100 (0 no damage, 100 complete death)
[25] = 250 g ai/ha, rating scale 0-100

SMILES: CCCOC(=O)C(Cl)Cc1c(OCC)c(Cl)cc(F)c1-n1c(=O)cc(C(F)(F)F)n(C)c1=O (centres unmarked) [14-65]
- phytotoxicity rating SETVI ([1]; 63 g ai/ha): 20
- phytotoxicity rating SETVI ([1]; 250 g ai/ha): 90
- phytotoxicity rating SORHA ([2]; 63 g ai/ha): 20
- phytotoxicity rating SORHA ([2]; 250 g ai/ha): 20
- phytotoxicity rating AMBEL ([3]; 63 g ai/ha): 100
- phytotoxicity rating AMBEL ([3]; 250 g ai/ha): 70
- phytotoxicity rating CHEAL ([4]; 63 g ai/ha): 60
- phytotoxicity rating CHEAL ([4]; 250 g ai/ha): 100
- phytotoxicity rating CASOB ([5]; 63 g ai/ha): 40
- phytotoxicity rating CASOB ([5]; 250 g ai/ha): 80
- phytotoxicity rating DIGSA ([6]; 63 g ai/ha): 90
- phytotoxicity rating DIGSA ([6]; 250 g ai/ha): 100
- phytotoxicity rating IPOHE ([7]; 63 g ai/ha): 40
- phytotoxicity rating IPOHE ([7]; 250 g ai/ha): 70
- phytotoxicity rating ABUTH ([8]; 63 g ai/ha): 90
- phytotoxicity rating ABUTH ([8]; 250 g ai/ha): 100
- phytotoxicity rating ECHCG ([9]; 63 g ai/ha): 0
- phytotoxicity rating ECHCG ([9]; 250 g ai/ha): 80
- phytotoxicity rating AMARE ([10]; 63 g ai/ha): 100
- phytotoxicity rating AMARE ([10]; 250 g ai/ha): 100
- Post-emerge Herbicidal Activity RICE (crop damage rating) ([11]; 63 g ai/ha): 0
- Post-emerge Herbicidal Activity RICE (crop damage rating) ([11]; 250 g ai/ha): 10
- Post-emerge Herbicidal Activity CORN (crop damage rating) ([12]; 63 g ai/ha): 0
- Post-emerge Herbicidal Activity CORN (crop damage rating) ([12]; 250 g ai/ha): 50
- Post-emerge Herbicidal Activity SETVI (phytotoxicity rating) ([13]; 63 g ai/ha): 100
- Post-emerge Herbicidal Activity SETVI (phytotoxicity rating) ([13]; 250 g ai/ha): 100
- Post-emerge Herbicidal Activity AMARE (phytotoxicity rating) [14, 24]: 100
- Post-emerge Herbicidal Activity AMARE (phytotoxicity rating) [14, 25]: 100
- Post-emerge Herbicidal Activity SORHA (phytotoxicity rating) ([15]; 63 g ai/ha): 30
- Post-emerge Herbicidal Activity SORHA (phytotoxicity rating) ([15]; 250 g ai/ha): 60
- Post-emerge Herbicidal Activity CHEAL (phytotoxicity rating) ([16]; 63 g ai/ha): 90
- Post-emerge Herbicidal Activity CHEAL (phytotoxicity rating) ([16]; 250 g ai/ha): 100
- Post-emerge Herbicidal Activity CASOB (phytotoxicity rating) ([17]; 63 g ai/ha): 90
- Post-emerge Herbicidal Activity CASOB (phytotoxicity rating) ([17]; 250 g ai/ha): 100
- Post-emerge Herbicidal Activity DIGSA (phytotoxicity rating) ([18]; 63 g ai/ha): 99
- Post-emerge Herbicidal Activity DIGSA (phytotoxicity rating) ([18]; 250 g ai/ha): 100
- Post-emerge Herbicidal Activity IPOHE (phytotoxicity rating) ([19]; 63 g ai/ha): 50
- Post-emerge Herbicidal Activity IPOHE (phytotoxicity rating) ([19]; 250 g ai/ha): 70
- Post-emerge Herbicidal Activity ABUTH (phytotoxicity rating) ([20]; 63 g ai/ha): 100
- Post-emerge Herbicidal Activity ABUTH (phytotoxicity rating) ([20]; 250 g ai/ha): 100
- Post-emerge Herbicidal Activity ECHCG (phytotoxicity rating) ([21]; 63 g ai/ha): 100
- Post-emerge Herbicidal Activity ECHCG (phytotoxicity rating) ([21]; 250 g ai/ha): 100
- phytotoxicity rating RICE ([22]; 63 g ai/ha): 0
- phytotoxicity rating RICE ([22]; 250 g ai/ha): 0
- phytotoxicity rating CORN ([23]; 63 g ai/ha): 0
- phytotoxicity rating CORN ([23]; 250 g ai/ha): 0

SMILES: CCCOC(=O)C(Cl)Cc1c(OCC)c(Cl)cc(F)c1-n1c(=O)cc(C(F)(F)F)n(C)c1=O (centres unmarked) [14-66]
- phytotoxicity rating SETVI ([1]; 63 g ai/ha): 20
- phytotoxicity rating SETVI ([1]; 250 g ai/ha): 100
- phytotoxicity rating SORHA ([2]; 63 g ai/ha): 0
- phytotoxicity rating SORHA ([2]; 250 g ai/ha): 30
- phytotoxicity rating AMBEL ([3]; 63 g ai/ha): 0
- phytotoxicity rating AMBEL ([3]; 250 g ai/ha): 0
- phytotoxicity rating CHEAL ([4]; 63 g ai/ha): 90
- phytotoxicity rating CHEAL ([4]; 250 g ai/ha): 100
- phytotoxicity rating CASOB ([5]; 63 g ai/ha): 0
- phytotoxicity rating CASOB ([5]; 250 g ai/ha): 0
- phytotoxicity rating DIGSA ([6]; 63 g ai/ha): 90
- phytotoxicity rating DIGSA ([6]; 250 g ai/ha): 100
- phytotoxicity rating IPOHE ([7]; 63 g ai/ha): 0
- phytotoxicity rating IPOHE ([7]; 250 g ai/ha): 60
- phytotoxicity rating ABUTH ([8]; 63 g ai/ha): 90
- phytotoxicity rating ABUTH ([8]; 250 g ai/ha): 100
- phytotoxicity rating ECHCG ([9]; 63 g ai/ha): 50
- phytotoxicity rating ECHCG ([9]; 250 g ai/ha): 100
- phytotoxicity rating AMARE ([10]; 63 g ai/ha): 100
- phytotoxicity rating AMARE ([10]; 250 g ai/ha): 100
- Post-emerge Herbicidal Activity RICE (crop damage rating) ([11]; 63 g ai/ha): 0
- Post-emerge Herbicidal Activity RICE (crop damage rating) ([11]; 250 g ai/ha): 10
- Post-emerge Herbicidal Activity CORN (crop damage rating) ([12]; 63 g ai/ha): 90
- Post-emerge Herbicidal Activity CORN (crop damage rating) ([12]; 250 g ai/ha): 100
- Post-emerge Herbicidal Activity SETVI (phytotoxicity rating) ([13]; 63 g ai/ha): 95
- Post-emerge Herbicidal Activity SETVI (phytotoxicity rating) ([13]; 250 g ai/ha): 100
- Post-emerge Herbicidal Activity AMARE (phytotoxicity rating) [14, 24]: 95
- Post-emerge Herbicidal Activity AMARE (phytotoxicity rating) [14, 25]: 100
- Post-emerge Herbicidal Activity SORHA (phytotoxicity rating) ([15]; 63 g ai/ha): 60
- Post-emerge Herbicidal Activity SORHA (phytotoxicity rating) ([15]; 250 g ai/ha): 80
- Post-emerge Herbicidal Activity CHEAL (phytotoxicity rating) ([16]; 63 g ai/ha): 80
- Post-emerge Herbicidal Activity CHEAL (phytotoxicity rating) ([16]; 250 g ai/ha): 99
- Post-emerge Herbicidal Activity CASOB (phytotoxicity rating) ([17]; 63 g ai/ha): 80
- Post-emerge Herbicidal Activity CASOB (phytotoxicity rating) ([17]; 250 g ai/ha): 90
- Post-emerge Herbicidal Activity DIGSA (phytotoxicity rating) ([18]; 63 g ai/ha): 100
- Post-emerge Herbicidal Activity DIGSA (phytotoxicity rating) ([18]; 250 g ai/ha): 100
- Post-emerge Herbicidal Activity IPOHE (phytotoxicity rating) ([19]; 63 g ai/ha): 70
- Post-emerge Herbicidal Activity IPOHE (phytotoxicity rating) ([19]; 250 g ai/ha): 90
- Post-emerge Herbicidal Activity ABUTH (phytotoxicity rating) ([20]; 63 g ai/ha): 100
- Post-emerge Herbicidal Activity ABUTH (phytotoxicity rating) ([20]; 250 g ai/ha): 100
- Post-emerge Herbicidal Activity ECHCG (phytotoxicity rating) ([21]; 63 g ai/ha): 100
- Post-emerge Herbicidal Activity ECHCG (phytotoxicity rating) ([21]; 250 g ai/ha): 100
- phytotoxicity rating RICE ([22]; 63 g ai/ha): 0
- phytotoxicity rating RICE ([22]; 250 g ai/ha): 20
- phytotoxicity rating CORN ([23]; 63 g ai/ha): 0
- phytotoxicity rating CORN ([23]; 250 g ai/ha): 0
